Experimental data: article PMC8305236, “New Broth Macrodilution Volatilization Method for Antibacterial Susceptibility Testing of Volatile Agents and Evaluation of Their Toxicity Using Modified MTT Assay In Vitro” (Molecules, 2021)
In brackets after ≈: the same amount, converted by molar mass. Read-outs that look alike come from different tables or passages of the source.

What was measured:
[1] = test system: Haemophilus influenzae ATCC 49247; assay: broth macrodilution volatilization method (liquid and vapor phase MIC); type: cell-based
Text: (§1) The following four bacterial standard strains from the American Type Culture Collection (ATCC, Manassas, VA, USA) were used: Haemophilus influenzae ATCC 49247, Staphylococcus aureus ATCC 29213, Streptococcus pneumoniae ATCC 49619, and Streptococcus pyogenes ATCC 19615. Cultivation and assay media (broth/agar) were Mueller–Hinton (MH) complemented by Haemophilus Tested Medium (H. influenzae), MH (S. aureus), and Brain Heart Infusion (S. pneumoniae and S. pyogenes). The pH of the broths was equilibrated to a final value of 7.6 using Trizma base (Sigma-Aldrich, Praha, Czech Republic). […] cultivation media were purchased from Oxoid (Basingstoke, UK).
(§2) Stock cultures of bacterial strains were cultivated in broth medium at 37 °C for 24 h prior to testing. For the preparation of inoculum, the turbidity of the bacterial suspension was adjusted to 0.5 McFarland standard using a Densi-La-Meter II (Lachema, Brno, Czech Republic) to obtain a final concentration of 10^8 CFU/mL.
(§3) The antibacterial potential of volatile plant-derived compounds in the liquid and vapor phases was determined using a newly developed broth macrodilution volatilization method performed in standard 2 mL microtubes with snap caps (Eppendorf, Hamburg, Germany). Initially, each sample of compound was dissolved in DMSO at maximum concentration of 1% and diluted in the appropriate broth medium. […] The concentration of β-thujaplicin started from 1024 µg/mL and from 128 µg/mL for thymohydroquinone and thymoquninone. In the second step, 90 µL of melted agar was pipetted into rims on the caps (Figure 3a) and inoculated with 5 µL of bacterial suspension after agar solidification. Subsequently, the appropriate concentrations of each sample previously prepared in test tubes were pipetted into microtubes in a final volume of 1500 µL. Then, the microtubes were inoculated with 10 µL of bacterial suspension and closed properly (Figure 3b). Microtubes containing inoculated and non-inoculated media were prepared as growth and purity controls simultaneously. After incubation at 37 °C for 24 h, the MICs were evaluated by the visual assessment of bacterial growth after coloring metabolically active bacterial colonies with MTT dye. The respective volumes of 30 and 375 µL of MTT at a concentration of 600 µg/mL were pipetted into the caps and in the microtubes when the interface of color change from yellow to purple (relative to that of colors in control wells) was recorded in broth and agar (Figure 3c). […] The MIC values were determined as the lowest concentrations that inhibited bacterial growth compared with the compound-free control and are expressed in µg/mL. In the case of the vapor phase, the concentration was also expressed in µg/cm^3 as the weight of the volatile agent per volume unit of a microtube. […] The respective susceptibilities of H. influenzae, S. aureus, S. pneumoniae, and S. pyogenes to ampicillin, oxacillin, amoxicillin, and tetracycline were checked as positive antibiotic controls. All tests were performed as three independent experiments, each carried out in triplicate, and the results were presented as median/modal values. According to the widely accepted norm in MIC testing, the mode and median were used for the final value calculation when triplicate endpoints were within the two- and three-dilution ranges, respectively.

[2] = test system: normal IMR-90 lung fibroblasts; design: method as in PMID 20711342; conditions: at a concentration of 32.84 µg/mL; cited from earlier work
H. influenzae = test system: H. influenzae; design: method as in PMID 28223069; conditions: cited from earlier work
S. aureus [3] = conditions: cited from earlier work
[4] = test system: Staphylococcus aureus ATCC 29213; assay: broth macrodilution volatilization method (liquid and vapor phase MIC); type: cell-based
Text: as §1, §2, §3

[5] = test system: Streptococcus pyogenes ATCC 19615; assay: as above; type: cell-based; conditions: Streptococcus pyogenes, ATCC19615
Text: as §1, §2, §3

[6] = test system: Streptococcus pneumoniae ATCC 49619; assay: as above; type: cell-based; conditions: Streptococcus pneumoniae, ATCC49619
Text: as §1, §2, §3

[7] = test system: normal lung fibroblast cells MRC-5; assay: modified MTT cytotoxicity assay; conditions: for IC50: Homo sapiens, MRC5, 72 h, read-out: IC50 ± SD; for level of cytotoxic effect (WHO classification): classified by IC50 in lung fibroblast cells; for TI: therapeutic index, TI = IC80/x¯ -MIC
Procedure: (§4) Lung fibroblast cell line MRC-5, obtained from ATCC, was propagated in Eagle’s Minimum Essential Medium (EMEM) supplemented with 10% fetal bovine serum (FBS), 2 mM glutamine, 10 µL/mL non-essential amino acids, and 1% penicillin–streptomycin solution (10,000 units/mL of penicillin and 10 mg/mL of streptomycin); all these components were purchased from Sigma-Aldrich. The cells were pre-incubated in 96-well microtiter plates at a density of 2.5 × 10^3 cells per well for 24 h at 37 °C in a humidified incubator in an atmosphere of 5% CO2 in air.
(§5) A modified method based on the metabolization of MTT to blue formazan by mitochondrial dehydrogenases in living lung cells previously described by Mosmann was used. The lung fibroblast cells were treated for 72 h with the tested compounds dissolved in DMSO at a maximum concentration of 1% and diluted in the EMEM medium supplemented with 10% FBS. Twelve two-fold serially diluted concentrations of these agents ranging from 512 to 0.25 µg/mL were prepared. The microtiter plates were covered with EVA capmats^TM at 37 °C in a humidified atmosphere of 5% CO2 in air and cultivated for 72 h. Thereafter, MTT reagent (1 mg/mL) in EMEM solution was added to each well and the plates were incubated for an additional 2 h at 37 °C in a humidified atmosphere of 5% CO2 in air. The media were removed, and the intracellular formazan product was dissolved in 100 µL of DMSO. […] The absorbance was measured at 555 nm using a Tecan Infinite M200 spectrometer (Tecan Group, Mannedorf, Switzerland), and the viability was calculated in comparison to that of the untreated control. Three independent experiments (two replicates each) were performed for each test. […] Furthermore, IC80 was calculated as equivalent to the MIC endpoint for comparison of microbiological and toxicological data. Therapeutic indices (TIs) were defined as the ratio of x¯ -IC80 and x¯ -MIC values with the aim of determining the amount of effective antibacterial agents with the quantity causing toxicity.

[8] = modified MTT cytotoxicity assay; conditions: human, MRC-5 normal lung fibroblast cells
Procedure: as §4, §5

S. aureus [9] = test system: S. aureus; design: method as in PMID 28223069; conditions: cited from earlier work
[10] = test system: Trichophyton mentagrophytes; design: method as in PMID 16648950; conditions: disc volatilization method; cited from earlier work
[11] = test system: healthy human lung MRC-5 cell lines; design: method as in PMID 28223069; conditions: cited from earlier work
S. pneumoniae = test system: S. pneumoniae; design: method as in PMID 28223069; conditions: cited from earlier work
respiratory pathogens = assay: broth macrodilution volatilization method, all four bacteria together; type: cell-based; conditions: mean value of minimal inhibitory concentrations in broth medium
Text: as §1, §2
The antibacterial potential of volatile plant-derived compounds in the liquid and vapor phases was determined using a newly developed broth macrodilution volatilization method performed in standard 2 mL microtubes with snap caps (Eppendorf, Hamburg, Germany). Initially, each sample of compound was dissolved in DMSO at maximum concentration of 1% and diluted in the appropriate broth medium. […] After incubation at 37 °C for 24 h, the MICs were evaluated by the visual assessment of bacterial growth after coloring metabolically active bacterial colonies with MTT dye. The respective volumes of 30 and 375 µL of MTT at a concentration of 600 µg/mL were pipetted into the caps and in the microtubes when the interface of color change from yellow to purple (relative to that of colors in control wells) was recorded in broth and agar (Figure 3c). […] The MIC values were determined as the lowest concentrations that inhibited bacterial growth compared with the compound-free control and are expressed in µg/mL. […]

mouse fibroblasts = test system: mouse fibroblasts; design: method as in PMID 17080016; conditions: cited from earlier work
[12] = ATCC49247, liquid phase, 37 °C, 24 h, read-out: Minimal Inhibitory Concentration, Broth
[13] = ATCC29213, liquid phase, 37 °C, 24 h, read-out: Minimal Inhibitory Concentration, Broth
[14] = ATCC29213, vapor phase, 37 °C, 24 h, read-out: Minimal Inhibitory Concentration, Agar
[15] = ATCC29213, vapor phase, weight of volatile agent per volume unit of microtube, read-out: Minimal Inhibitory Concentration, Agar
[16] = liquid phase, 37 °C, 24 h, read-out: Minimal Inhibitory Concentration, Broth
[17] = vapor phase, 37 °C, 24 h, read-out: Minimal Inhibitory Concentration, Agar
[18] = vapor phase, weight of volatile agent per volume unit of microtube, read-out: Minimal Inhibitory Concentration, Agar

CC1(C)S[C@@H]2[C@H](NC(=O)[C@H](N)c3ccccc3)C(=O)N2[C@H]1C(=O)O [ampicillin, reference compound]
MIC [1, 12]: 1 µg/mL (≈ 2.86 µM)

CC1=CC(=O)C(C(C)C)=CC1=O [thymoquinone]
effect on viability [2]: did not alter the viability | MIC, liquid phase (H. influenzae; liquid phase): 8 µg/mL (≈ 48.7 µM) | MIC, vapor phase (H. influenzae; vapor phase): 8 µg/mL (≈ 48.7 µM) | MIC (S. aureus [3]; S. aureus ATCC 29213 and ATCC 25923): 8 µg/mL (≈ 48.7 µM) | MIC [4, 13]: 8 µg/mL (≈ 48.7 µM) | MIC [4, 14]: 16 µg/mL (≈ 97.4 µM) | MIC [4, 15]: 10 µg/mL (≈ 60.9 µM) | MIC [5, 16]: 32 µg/mL (≈ 195 µM) | MIC [5, 17]: 32 µg/mL (≈ 195 µM) | MIC [5, 18]: 20 µg/mL (≈ 122 µM) | MIC [1, 12]: 4 µg/mL (≈ 24.4 µM) | MIC ([1]; ATCC49247, vapor phase, 37 °C, 24 h, read-out: Minimal Inhibitory Concentration, Agar): 8 µg/mL (≈ 48.7 µM) | MIC ([1]; ATCC49247, vapor phase, weight of volatile agent per volume unit of microtube, read-out: Minimal Inhibitory Concentration, Agar): 5 µg/mL (≈ 30.4 µM) | MIC [6, 16]: 16 µg/mL (≈ 97.4 µM) | MIC [6, 17]: 16 µg/mL (≈ 97.4 µM) | MIC [6, 18]: 10 µg/mL (≈ 60.9 µM) | IC50 [7]: 1.21 ± 0.24 µg/mL (≈ 7.37 µM) | level of cytotoxic effect (WHO classification) [7]: toxic | TI [7]: 1.00 | IC80 at 72 h [8]: 15 ± 4.46 µg/mL (≈ 91.3 µM) | MIC, liquid phase (S. aureus [9]; liquid phase): 16 µg/mL (≈ 97.4 µM) | MIC, vapor phase (S. aureus [9]; vapor phase): 16 µg/mL (≈ 97.4 µM) | vapor activity [10]: very potent vapor activity | IC50 [11]: 1.70 µg/mL (≈ 10.4 µM) | MIC, liquid phase (S. pneumoniae; liquid phase): 16 µg/mL (≈ 97.4 µM) | MIC, vapor phase (S. pneumoniae; vapor phase): 32 µg/mL (≈ 195 µM) | x¯ -MIC (respiratory pathogens): 15 µg/mL

CC1(C)S[C@@H]2[C@H](NC(=O)[C@H](N)c3ccc(O)cc3)C(=O)N2[C@H]1C(=O)O [amoxicillin, reference compound]
MIC [6, 16]: 0.25 µg/mL (≈ 0.684 µM)

CN(C)[C@@H]1C(O)=C(C(N)=O)C(=O)[C@@]2(O)C(O)=C3C(=O)c4c(O)cccc4[C@@](C)(O)[C@H]3C[C@@H]12 [tetracycline, reference compound]
MIC [5, 16]: 0.25 µg/mL (≈ 0.563 µM)

CCC1=C[C@@H]2CN(C1)Cc1c([nH]c3ccccc13)[C@@](C(=O)OC)(c1cc3c(cc1OC)N(C)[C@H]1[C@@](O)(C(=O)OC)[C@H](OC(C)=O)[C@]4(CC)C=CCN5CC[C@]31[C@@H]54)C2 [vinorelbin, reference compound]
IC80 ± SD ([7]; 80% inhibitory concentration of proliferation, 72 h, plates sealed with EVA capmat): >10 µg/mL | IC50 ± SD ([7]; half maximal inhibitory concentration of proliferation, 72 h, plates sealed with EVA capmat): 0.54 ± 0.26 µg/mL (≈ 0.693 µM)

Cc1onc(-c2ccccc2)c1C(=O)N[C@@H]1C(=O)N2[C@@H]1SC(C)(C)[C@@H]2C(=O)O [oxacillin, reference compound]
MIC [4, 13]: 0.5 µg/mL (≈ 1.25 µM)

Cc1cc(O)c(C(C)C)cc1O [thymohydroquinone]
MIC (S. aureus [3]; S. aureus ATCC 25923): 400 µg/mL (≈ 2410 µM) | MIC [4, 13]: 8 µg/mL (≈ 48.1 µM) | MIC [4, 14]: 16 µg/mL (≈ 96.3 µM) | MIC [4, 15]: 10 µg/mL (≈ 60.2 µM) | MIC [5, 16]: 32 µg/mL (≈ 193 µM) | MIC [5, 17]: 32 µg/mL (≈ 193 µM) | MIC [5, 18]: 20 µg/mL (≈ 120 µM) | MIC ([1]; ATCC49247, 24 h, read-out: Minimal Inhibitory Concentration, Agar): 8 µg/mL (≈ 48.1 µM) | MIC ([1]; ATCC49247, 24 h, read-out: Minimal Inhibitory Concentration, Broth): 4 µg/mL (≈ 24.1 µM) | MIC ([1]; ATCC49247, read-out: Minimal Inhibitory Concentration, Agar): 5 µg/mL (≈ 30.1 µM) | MIC [6, 16]: 16 µg/mL (≈ 96.3 µM) | MIC [6, 17]: 32 µg/mL (≈ 193 µM) | MIC [6, 18]: 20 µg/mL (≈ 120 µM) | IC50 [7]: 2.64 ± 0.33 µg/mL (≈ 15.9 µM) | level of cytotoxic effect (WHO classification) [7]: moderate toxicity | TI [7]: >34.13 | IC80 at 72 h [8]: > 512 µg/mL | cell growth inhibition (mouse fibroblasts; at 10 µg/mL): 21% | cell growth inhibition (mouse fibroblasts; at 100 µg/mL): 63% | x¯ -MIC (respiratory pathogens): 15 µg/mL
